Numbering of substitutions follows the chain as printed. Entries after “also recorded” stand apart in the source; their conditions may differ. Blank lines part the entries; values can stand above or below the compound they belong to.
Key:
purified PKG-1 = target: T1, purified PKG-1 (Bos taurus, UniProt P00516); assay: In vitro kinase assay of purified PKG-1 after peroxynitrite or DETA NONOate; type: biochemical; settings: even at 100 μM, 30 min in dark at RT
T1 construct: purchased Promega
T1 sequence (P00516 1-671): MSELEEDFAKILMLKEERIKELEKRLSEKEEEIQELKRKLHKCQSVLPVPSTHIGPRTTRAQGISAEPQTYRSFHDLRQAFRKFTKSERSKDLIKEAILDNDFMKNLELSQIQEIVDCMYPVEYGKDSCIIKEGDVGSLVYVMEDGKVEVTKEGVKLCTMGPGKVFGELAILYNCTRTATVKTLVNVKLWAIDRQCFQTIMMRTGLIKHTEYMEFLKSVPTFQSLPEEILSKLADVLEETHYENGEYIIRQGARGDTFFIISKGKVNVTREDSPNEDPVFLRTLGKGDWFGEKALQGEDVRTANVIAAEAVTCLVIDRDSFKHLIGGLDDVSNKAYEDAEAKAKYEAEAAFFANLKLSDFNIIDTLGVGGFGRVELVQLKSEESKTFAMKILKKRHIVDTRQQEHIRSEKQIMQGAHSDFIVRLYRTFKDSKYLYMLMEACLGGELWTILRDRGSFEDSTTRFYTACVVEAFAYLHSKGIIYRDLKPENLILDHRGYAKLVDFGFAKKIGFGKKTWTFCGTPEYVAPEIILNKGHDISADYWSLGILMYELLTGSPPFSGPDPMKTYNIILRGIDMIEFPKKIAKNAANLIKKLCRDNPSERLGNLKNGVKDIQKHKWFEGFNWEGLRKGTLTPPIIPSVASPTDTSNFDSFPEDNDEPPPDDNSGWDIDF
Experimental: (§1) PKG Kinase Assay. In vitro activity of PKG was determined by measuring the transfer of the [g-^32P] phosphate group of ATP to the specific PKG substrate, BPDEtide (Calbiochem) in the absence or presence of exogenous 2.5 mM cGMP as described in Example 13. PKG activity is expressed as picmoles of ^32P incorporated into PKG substrate per min per microgram protein.
To address the role of peroxynitrite in the mechanism of the observed impairment of PKG activity, we treated human pulmonary artery smooth muscle cells with 3-morpholinosydnonimine (SIN-1), the superoxide and NO donor that forms peroxynitrite simultaneously (30). […] FIG. 9A relates to dose-dependent impairment of PKG activity by peroxynitrite. Purified […] (Promega) was incubated with peroxynitrite at indicated concentrations for 14 min at RT or with DETA NONOate (NONOate) for 30 min in dark at RT. Kinase activity was then assayed. Data is expressed mean+/−SD (n=3). *, P<0.05 versus control (0 μM). FIG. 9B relates to screening of PKG-1a mutants with in vitro kinase assay. At 48 hr post-transfection, myc-tagged WT and PKG-1a mutants were immunoprecipitated with anti-myc beads and aliquoted for incubation with either peroxynitrite (100 μM) or the same amount of 0.1 N NaOH only (CTL). […] PKG activity was expressed as pmoles/min/μg cell lysates. […] Data are expressed as mean±SD (n=3), *, P<0.05 versus either PKG-1a mutant. […]

PKG = target: T2, PKG (Homo sapiens, UniProt Q13976); assay: PKG kinase activity in human pulmonary artery smooth muscle cells after SIN-1; type: cell-based
T2 construct: endogenous in cells; host or cells: primary human pulmonary artery smooth muscle cells
T2 sequence (Q13976 1-671): T1 sequence (P00516 1-671) with K265T, N275S
Experimental: In vitro activity of PKG was determined by measuring the transfer of the [g-32P] phosphate group of ATP to the specific PKG substrate, BPDEtide (Calbiochem) in the absence or presence of exogenous 2.5 mM cGMP. The assay was carried out in a total volume of […] containing 150 mM BPDEtide, 10 mM HEPES, 35 mM b-glycerophosphate, 4 mM magnesium acetate, 5 mM PKI (a synthetic protein kinase A inhibitor, Calbiochem), 0.5 mM EDTA, 200 mM ATP, and 2 mCi of [g-32P]ATP (specific activity 3,000 Ci/mmol, GE Amersham). The mixture was incubated at […] for 12 min and terminated by spotting […] aliquots of mixture on phosphocellulose papers (P81, Whatman). The papers were then washed and counted in a liquid scintillation counter. PKG activity is expressed as picmoles of 32P incorporated into PKG substrate per minute per milligram protein.
(§2) To test the hypothesis that peroxynitrite modifies PKG through tyrosine nitration thereby impairing kinase activity, we treated subconfluent human pulmonary artery smooth muscle cells with 3-morpholinosydnonimine (SIN-1), a donor of superoxide and NO, which spontaneously forms peroxynitrite at the two concentrations used. […] Each cell lysate (50 mg) was used for immunoprecipitation with an anti-PKG-I antibody and tyrosine nitration of PKG-I was detected by Western blot with anti-nitrotyrosine antibody (NT). Each lysate (15 mg) was used for direct immunoblotting with anti-PKG-I and anti-GAPDH, respectively. CTL, control. […] Data are shown as mean±SD (n=3). *, P<0.001 versus CTL; **, P<0.001 versus CTL.
as §1

PKG-I = target: T3, PKG-I (Homo sapiens, UniProt Q13976); assay: PKG-I tyrosine nitration in human pulmonary artery smooth muscle cells after SIN-1 (IP / anti-nitrotyrosine Western blot); type: cell-based
T3 construct: primary cultures of human pulmonary artery smooth muscle cells were immunoprecipitated overnight with anti-PKG-I; endogenous in cells; host or cells: primary human pulmonary artery smooth muscle cells
T3 sequence (Q13976 1-671): T1 sequence (P00516 1-671) with K265T, N275S
Experimental: Western blot analyses were performed using anti-Cav1 (1:1000, Santa Cruz Biotechnology), anti-eNOS (1:1000, Upstate Biotechnology), and anti-PKG-I (1 mg/ml, a generous gift from Dr. X-P. Du at Department of Pharmacology, University of Illinois at Chicago). The same blots were reprobed with either anti-a-actin (1:400, Santa Cruz Biotechnology) or anti-GAPDH (1:2000, Santa Cruz Biotechnology) as a loading control. To detect PKG-I tyrosine nitration, protein lysates from either mouse lungs or primary cultures of human pulmonary artery smooth muscle cells were immunoprecipitated overnight with anti-PKG-I and then probed with anti-nitrotyrosine (1:2500, Cayman Chemical).
as §2
Molecular Analysis. […]

Cav1−/− mice = assay: RVSP in Cav1−/− mice with PH; type: in vivo, mouse; settings: 8 month old Cav1−/− mice; 5 mg/kg, i.p. daily for 6 wk
Experimental: RVSP was determined as follows. Briefly, following anesthesia, mice were prepared for catheterization. A 1.4 F pressure transducer catheter (Millar Instruments) was carefully inserted via the right external jugular vein into the right ventricle to obtain measurements of RVSP using the Acknowledge software (Biopac Systems, Inc.). To determine lung vascular resistance, mice were anesthetized and prepared for perfusion. Pulmonary arterial (Ppa) and venous (Pv) pressures were monitored continuously through the pulmonary arterial and left atrial cannula, which were connected to a pressure transducer. […] Ppa was measured at steady-state and was plotted against the flow, which was measured by weighing the effluent collected over a one-minute period. […]
To determine whether pharmacological inhibition of eNOS in Cav1^−/− mice can reverse PH, we administered N-Nitro-L-Arginine Methyl Ester (L-NAME), a NOS inhibitor, to Cav1^−/− mice following onset of PH. […] Data are expressed as mean±SD (n=5-7). *, P=0.023 WT versus Cav1^−/−;**, P=0.015 Cav-L versus Cav1^−/−; #, P>0.5 Cav-D versus Cav1^−/−. […] Data are expressed as mean±SD (n=5-7). *, P=0.002 WT versus Cav1^−/−; **, P=0.013 Cav-L versus Cav1^−/−; #, P=0.8 Cav-D versus Cav1^−/−.
Hemodynamic Measurements. RVSP was determined with a 1.4 F pressure transducer catheter (Millar Instruments) and the Acknowledge software (Biopac Systems, Inc.). […]

PKG activity (purified PKG-1): failed to suppress PKG activity
Compound: NCCN(CCN)/[N+]([O-])=N/O [DETA NONOate]

PKG kinase activity (PKG; SIN-1 at 0.1 mM): did not decrease PKG kinase activity
PKG tyrosine nitration (PKG-I; SIN-1 at 0.1 mM): only minimal PKG tyrosine nitration
Compound: N=c1c[n+](N2CCOCC2)[n-]o1 [SIN-1, 3-morpholinosydnonimine]
PKG kinase activity after addition of cGMP (PKG; SIN-1 30 min, after addition of 2.5 mM of cGMP): significant decrease of PKG activity; also recorded: significantly decreased PKG kinase activity; also recorded: impaired kinase activity
PKG kinase activity, basal (PKG; SIN-1 30 min, basal state): significant decrease of PKG activity; also recorded: significantly decreased PKG kinase activity; also recorded: impaired kinase activity
PKG tyrosine nitration (PKG-I; SIN-1 concentration, 30 min): significant PKG tyrosine nitration; also recorded: marked PKG tyrosine nitration; also recorded: PKG1 tyrosine nitration

Compound: manganese (III) tetrakis (1-methyl-4-pyridyl) porphyrin pentachloride [MnTMPyP]
RVSP (Cav1−/− mice): reduced RVSP
